Key:
[1] = Weight loss of additive by thermogravimetric analysis (TGA); format: physicochemical; settings: 5° C./min, nitrogen; for Temperature at which stated weight loss of additive occurs, 10%: 10% weight loss; for Temperature at which stated weight loss of additive occurs, 5%: 5% weight loss
Method: Weight loss data for the hindered amines are obtained by thermogravimetric analysis on a DuPont model 2100 analyzer, operated at a scan rate of 5° C./min in a nitrogen atmosphere using 4-5 mg sample in aluminum pans.

[2] = pKa of hindered amines by non-aqueous titration; format: physicochemical; settings: extrapolated from calibration plot
Description: The pKa measurements of the hindered amines are obtained by non-aqueous titration. Organic reference materials with known pKa values in water, are titrated in non-aqueous media (1:1 acetonitrile:chloroform and 0.1 N perchloric acid/dioxane titrant system) to generate a non-aqueous calibration plot of half-neutralization potential (HNP) versus pKa. The "unknown" hindered amines are then titrated to determine the HNP, and extrapolated to obtain the corresponding pKa from this calibration plot.

[3] = Discoloration (delta E), Dry XAW, two-pass compounded clear PC/ABS (Example 6); settings: in words
Method: Accelerated weathering is performed using an Atlas Ci65A Weather-o-meter ("XAW"), operated in either "Dry XAW" mode (ASTM G26-90 method C) or interior auto ("IAXAW") (black panel temperature 89° C., light/dark cycle 3.8 hr/1.0 hr; irradiance 0.55 watt/m^2, inner filter-quartz, outer filter--high borate.
Yellowness Index and delta E color are performed as per ASTM D-1925, using a Chroma-Sensor CS-5 Colorimeter, operated at 10 degree, small area view, specular included.
This polymer blend is prepared by two-step compounding. The hindered amine is extrusion compounded with ABS on a 18 mm twin screw extruder with set temperatures (throat to die, ° C.) of 170/200/215/225/225/225. The ABS is optionally redried then extrusion compounded with an equal weight of polycarbonate to achieve a 50/50 wt/wt ratio blend. TINUVIN® 234 is added during the second extrusion compounding step although the UV absorber can also be added during the first compounding step.
Thereafter, chip impact bars are prepared and subjected to dry XAW accelerated weathering. The samples are removed at selected intervals for color measurement and then for destructive chip impact testing.

| Temperature at which stated weight loss of additive occurs, 2% ([1]; 2% weight loss (printed in 5% column)) [°C] | Temperature at which stated weight loss of additive occurs, 10% [1] [°C] | Approximate pKa [2] | Temperature at which stated weight loss of additive occurs, 1% ([1]; 1% weight loss (printed in 5% column)) [°C] | Compound | Temperature at which stated weight loss of additive occurs, 5% [1] [°C] | color stability [3] |
| --- | --- | --- | --- | --- | --- | --- |
| 319 | 372 | ~6.1 |  | CN1C(C)(C)CN(CCN(c2nc(N(CCN3CC(C)(C)N(C)C(C)(C)C3=O)C3CCCCC3)nc(N(CCN3CC(C)(C)N(C)C(C)(C)C3=O)C3CCCCC3)n2)C2CCCCC2)C(=O)C1(C)C [GOODRITE ® 3159, 1,3,5-tris{N-cyclohexyl-N-[2-(3,3,4,5,5-pentaamethylpiperazin-2-on-1-yl)ethyl]amino}-s-triazine] |  |  |
|  | 260 | ~9.0 | 200 | CC1(C)CC(OC(=O)CCCCCCCCC(=O)OC2CC(C)(C)NC(C)(C)C2)CC(C)(C)N1 [TINUVIN ® 770, bis(2,2,6,6-tetramethylpiperidin-4-yl) sebacate] |  |  |

Continued, molecule first:

| Compound | Temperature at which stated weight loss of additive occurs, 2% ([1]; 2% weight loss (printed in 5% column)) [°C] | Temperature at which stated weight loss of additive occurs, 10% [1] [°C] | Approximate pKa [2] | Temperature at which stated weight loss of additive occurs, 1% ([1]; 1% weight loss (printed in 5% column)) [°C] | Temperature at which stated weight loss of additive occurs, 5% [1] [°C] | color stability [3] |
| --- | --- | --- | --- | --- | --- | --- |
| CCCCCCCCON1C(C)(C)CC(OC(=O)CCCCCCCCC(=O)OC2CC(C)(C)N(OCCCCCCCC)C(C)(C)C2)CC1(C)C [TINUVIN ® 123, bis(1-octyloxy-2,2,6,6-tetramethylpiperidin-4-yl) sebacate] |  | 236 | ~4.4 |  | 222 |  |
| CC1(C)CN(CCN(c2nc(N(CCN3CC(C)(C)NC(C)(C)C3=O)C3CCCCC3)nc(N(CCN3CC(C)(C)NC(C)(C)C3=O)C3CCCCC3)n2)C2CCCCC2)C(=O)C(C)(C)N1 [GOODRITE ® 3150, 1,3,5-tris{N-cyclohexyl-N-[2-(3,3,5,5-tetramethylpiperazin-2-on-1-yl)ethyl]amino}-s-triazine] |  | 362 | ~6.7 |  | 345 | reasonably equivalent color stability |
| CC(C)(c1ccccc1)c1cc(-n2nc3ccccc3n2)c(O)c(C(C)(C)c2ccccc2)c1 [TINUVIN® 234, 2-(2-hydroxy-3,5-di-α-cumylphenyl)-2H-benzotriazole] |  |  |  |  |  | reasonably equivalent color stability |

Reference: patent publication US5990208A, “Stabilization of polycarbonate/ABS blends with mixtures of hindered amines and UV absorbers” (Ciba Specialty Chemicals Corporation, priority 1997, dated 1999)
